Experimental data published in US7589097B2, “Triazol[4,5-d] pyramidine derivatives and their use as purinergic receptor antagonists” (Vernalis Research Limited, priority 2001, dated 2009).

Assays:
[1] = biological target: human adenosine A2A receptors (Homo sapiens, UniProt P29274); assay: Binding affinities at hA2A receptors, displacement of [3H]-CGS 21680
Source text: Adenosine Receptor Binding Binding Affinities at hA2A Receptors

Parkinsonian patients = details: cited from earlier work
cataleptic responses = details: cited from earlier work

human adenosine A2A receptors, sequence (P29274 whole entry): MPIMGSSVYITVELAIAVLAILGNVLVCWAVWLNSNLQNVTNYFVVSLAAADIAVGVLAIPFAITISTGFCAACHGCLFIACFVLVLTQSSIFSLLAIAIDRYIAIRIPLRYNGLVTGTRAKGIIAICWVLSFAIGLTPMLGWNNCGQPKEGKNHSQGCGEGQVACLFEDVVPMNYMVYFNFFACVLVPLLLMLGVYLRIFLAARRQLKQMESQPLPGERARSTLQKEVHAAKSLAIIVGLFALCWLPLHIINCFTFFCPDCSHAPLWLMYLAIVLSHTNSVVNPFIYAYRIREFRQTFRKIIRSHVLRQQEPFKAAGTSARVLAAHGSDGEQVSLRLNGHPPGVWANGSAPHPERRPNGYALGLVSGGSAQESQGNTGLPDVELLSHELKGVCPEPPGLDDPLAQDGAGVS

Ki [1] [nM] | melting point | Compound | also measured
3 | 259.8 to 259.9 °C | Nc1cccc(Cn2nnc3c(-c4ccco4)nc(N)nc32)c1 [Example 5, 3-(3-Aminobenzyl)-7-(2-furyl)-3H-[1,2,3]triazolo[4,5-d]pyrimidine-5-amine] | 
4 | 184.5 to 184.6 °C | Nc1nc(-c2ccco2)c2nnn(Cc3cccc(NCc4ccccn4)c3)c2n1 [Example 255, 3-(3-(2-pyridylmethylamino)benzyl)-7-(2-furyl)-3H-[1,2,3]triazolo[4,5-d]pyrimidine-5-amine] | 
2 | 188.8 to 188.9 °C | Nc1nc(-c2ccco2)c2nnn(Cc3cccc(F)c3F)c2n1 [Example 57, 3-(2,3-difluorobenzyl)-7-(2-furyl)-3H-[1,2,3]triazolo[4,5-d]pyrimidine-5-amine] | 
2 | 267.9 to 268.5 °C | Cc1cccc(Cn2nnc3c(-c4ccco4)nc(N)nc32)c1[N+](=O)[O-] [Example 92, 7-(2-furyl)-3-(3-methyl-2-nitrobenzyl)-3H-[1,2,3]triazolo[4,5-d]pyrimidine-5-amine] | 
1 | > 250 °C (dec.) | Nc1nc(-c2ccco2)c2nnn(Cc3ccc4c(c3)OCO4)c2n1 [Example 209, 7-(2-furyl)-3-(3,4-methylenedioxybenzyl)-3H-[1,2,3]triazolo[4,5-d]pyrimidine-5-amine] | 
1 | 210.5 to 211.6 °C | C=Cc1cccc(Cn2nnc3c(-c4ccco4)nc(N)nc32)n1 [Example 202, 7-(2-furyl)-3-(6-vinyl-2-pyridylmethyl)-3H-[1,2,3]triazolo[4,5-d]pyrimidine-5-amine] | 
1 | 211.4 to 211.6 °C | Nc1nc(-c2ccco2)c2nnn(Cc3ccc(Cl)cc3N)c2n1 [Example 120, 3-(2-amino-4-chlorobenzyl)-7-(2-furyl)-3H-[1,2,3]triazolo[4,5-d]pyrimidine-5-amine] | 
1 | 228.9 to 229.9 °C | Nc1nc(-c2ccco2)c2nnn(Cc3ccc4ccccc4n3)c2n1 [Example 188, 7-(2-furyl)-3-(quinolin-2-ylmethyl)-3H-[1,2,3]triazolo[4,5-d]pyrimidine-5-amine] | 
 |  | Cn1c(=O)c2[nH]cnc2n(C)c1=O [Theophylline, theophylline] | mean objective disability scores (Parkinsonian patients; 15 Parkinsonian patients, up to 12 weeks, 150 mg/day oral): significant improvements; patients reporting moderate or marked subjective improvement (Parkinsonian patients; of 15 Parkinsonian patients, up to 12 weeks, 150 mg/day oral): 11; serum theophylline levels (Parkinsonian patients; slow release oral preparation 150 mg/day, after one week, Parkinsonian patients): 4.44 mg/L
2 |  | Nc1nc(-c2ccco2)c2nnn(Cc3cc(I)ccc3F)c2n1 [Example 169, 3-(2-fluoro-5-iodobenzyl)-7-(2-furyl)-3H-[1,2,3]triazolo[4,5-d]pyrimidine-5-amine] | 
7 |  | Nc1nc(-c2ccco2)c2nnn(Cc3ccccc3[N+](=O)[O-])c2n1 [Example 12, 7-(2-furyl)-3-(2-nitrobenzyl)-3H-[1,2,3]triazolo[4,5-d]pyrimidine-5-amine] | 
 |  | CCCn1c(=O)c2c(nc(/C=C/c3ccc(OC)c(OC)c3)n2C)n(CCC)c1=O [KF 17837, (E)-8-(3,4-dimethoxystyryl)-1,3-dipropyl-7-methylxanthine] | anticataleptic effects of a subthreshold dose of L-DOPA plus benserazide (cataleptic responses; in vivo): potentiated; catalepsy induced by haloperidol and reserpine (cataleptic responses; in vivo): reduced; cataleptic responses induced by intracerebroventricular CGS 21680 (cataleptic responses; oral administration): significantly ameliorated
2 | 213.8 to 213.9 °C | Nc1nc(-c2ccco2)c2nnn(Cc3c(F)cccc3F)c2n1 [Example 41, 3-(2,6-difluorobenzyl)-7-(2-furyl)-3H-[1,2,3]triazolo[4,5-d]pyrimidine-5-amine] | 
4 | 219.7 to 222.3 °C | CN(C)Cc1cccc(Cn2nnc3c(-c4ccco4)nc(N)nc32)n1 [Example 233, 3-(6-(N,N-dimethylamino)methyl-2-pyridylmethyl)-7-(2-furyl)-3H-[1,2,3]triazolo[4,5-d]pyrimidine-5-amine] | 
3 |  | Nc1nc(-c2ccco2)c2nnn(Cc3ccccc3F)c2n1 [Example 3, 3-(2-Fluorobenzyl)-7-(2-furyl)-3H-[1,2,3]triazolo[4,5-d]pyrimidine-5-amine] | 
1 |  | Nc1nc(-c2ccco2)c2nnn(Cc3c(F)cc(O)cc3F)c2n1 [Example 149, 3-(2,6-difluoro-4-hydroxybenzyl)-7-(2-furyl)-3H-[1,2,3]triazolo[4,5-d]pyrimidine-5-amine] | 
2 | 274.2 to 274.3 °C | COc1cc(F)c(Cn2nnc3c(-c4ccco4)nc(N)nc32)c(F)c1 [Example 156, 3-(2,6-Difluoro-4-methoxybenzyl)-7-(2-furyl)-3H-[1,2,3]triazolol[4,5-d]pyrimidine-5-amine] | 
2 | 276.4 to 277.4 °C | Nc1nc(-c2ccco2)c2nnn(Cc3cccc4cccnc34)c2n1 [Example 107, 7-(2-furyl)-3-(8-quinolinylmethyl)-3H-[1,2,3]triazolo[4,5-d]pyrimidine-5-amine] | 

Compound | Ki [1] [nM] | melting point | also measured
N#Cc1cccc(Cn2nnc3c(-c4ccco4)nc(N)nc32)c1 [Example 15, 3-(3-cyanobenzyl)-7-(2-furyl)-3H-[1,2,3]triazolo[4,5-d]pyrimidine-5-amine] | 4 |  | 
